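Test compounds were applied to cells in 96-well plates for 48 hours at 5 doses. GI50 = concentration required for 50% inhibition of growth.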 Calls of active or inactive are those of the source. Rule as the data show it: active = GI50 up to about 1.1 µM and inactive = higher.
Key:
Experiment in all cases: growth of human tumour cells (NCI), 48 h
786-0 = test system: 786-0
A498 = test system: A498
A549 = test system: A549
ACHN = test system: ACHN
CAKI-1 = test system: CAKI-1
CCRF-CEM = test system: CCRF-CEM
COLO 205 = test system: COLO 205
DU-145 = test system: DU-145
EKVX = test system: EKVX
HCC 2998 = test system: HCC 2998
HCT-116 = test system: HCT-116
HCT-15 = test system: HCT-15
HL-60 = test system: HL-60
HOP-92 = test system: HOP-92
HT-29 = test system: HT-29
Hs-578T = test system: Hs-578T
IGROV-1 = test system: IGROV-1
K562 = test system: K562
KM12 = test system: KM12
LOX IMVI = test system: LOX IMVI
M14 = test system: M14
MCF7 = test system: MCF7
MDA-MB-231 = test system: MDA-MB-231
MDA-MB-435 = test system: MDA-MB-435
MDA-N = test system: MDA-N
MOLT-4 = test system: MOLT-4
Malme-3M = test system: Malme-3M
NCI-H226 = test system: NCI-H226
NCI-H23 = test system: NCI-H23
NCI-H460 = test system: NCI-H460
NCI-H522 = test system: NCI-H522
NCI/ADR-RES = test system: NCI/ADR-RES
OVCAR-3 = test system: OVCAR-3
OVCAR-4 = test system: OVCAR-4
OVCAR-5 = test system: OVCAR-5
OVCAR-8 = test system: OVCAR-8
PC-3 = test system: PC-3
RPMI-8226 = test system: RPMI-8226
SF-268 = test system: SF-268
SF-295 = test system: SF-295
SF-539 = test system: SF-539
SK-MEL-28 = test system: SK-MEL-28
SK-MEL-2 = test system: SK-MEL-2
SK-MEL-5 = test system: SK-MEL-5
SK-OV-3 = test system: SK-OV-3
SN12C = test system: SN12C
SNB-19 = test system: SNB-19
SNB-75 = test system: SNB-75
SW-620 = test system: SW-620
T47D = test system: T47D
TK-10 = test system: TK-10
U-251 = test system: U-251
UACC-257 = test system: UACC-257
UACC-62 = test system: UACC-62
UO-31 = test system: UO-31
BT-549 = test system: BT-549
HOP-62 = test system: HOP-62
RXF 393 = test system: RXF 393

SMILES: C[C@@H](C1CC[C@H]2[C@@H]3[C@@H]4O[C@@H]4[C@@]4(O)CC=CC(=O)[C@]4(C)[C@H]3C[C@H](O)[C@]12C)[C@H]1C[C@]2(C)O[C@]2(C)C(=O)O1 (stereo partly drawn)
- GI50 (786-0): > 100 µM (inactive)
- GI50 (A498): > 100 µM (inactive)
- GI50 (A549): > 100 µM (inactive)
- GI50 (ACHN): > 100 µM (inactive)
- GI50 (CAKI-1): > 100 µM (inactive)
- GI50 (CCRF-CEM): 56.6 µM (inactive)
- GI50 (COLO 205): > 100 µM (inactive)
- GI50 (DU-145): > 100 µM (inactive)
- GI50 (EKVX): > 100 µM (inactive)
- GI50 (HCC 2998): > 100 µM (inactive)
- GI50 (HCT-116): > 100 µM (inactive)
- GI50 (HCT-15): > 100 µM
- GI50 (HL-60): > 100 µM (inactive)
- GI50 (HOP-92): > 100 µM (inactive)
- GI50 (HT-29): > 100 µM (inactive)
- GI50 (Hs-578T): > 100 µM (inactive)
- GI50 (IGROV-1): > 100 µM (inactive)
- GI50 (K562): > 100 µM (inactive)
- GI50 (KM12): > 100 µM (inactive)
- GI50 (LOX IMVI): > 100 µM (inactive)
- GI50 (M14): > 100 µM (inactive)
- GI50 (MCF7): > 100 µM (inactive)
- GI50 (MDA-MB-231): > 100 µM (inactive)
- GI50 (MDA-MB-435): > 100 µM (inactive)
- GI50 (MDA-N): > 100 µM (inactive)
- GI50 (MOLT-4): > 100 µM (inactive)
- GI50 (Malme-3M): > 100 µM (inactive)
- GI50 (NCI-H226): > 100 µM (inactive)
- GI50 (NCI-H23): > 100 µM (inactive)
- GI50 (NCI-H460): > 100 µM (inactive)
- GI50 (NCI-H522): > 100 µM (inactive)
- GI50 (NCI/ADR-RES): > 100 µM (inactive)
- GI50 (OVCAR-3): > 100 µM (inactive)
- GI50 (OVCAR-4): > 100 µM (inactive)
- GI50 (OVCAR-5): > 100 µM (inactive)
- GI50 (OVCAR-8): > 100 µM (inactive)
- GI50 (PC-3): > 100 µM (inactive)
- GI50 (RPMI-8226): > 100 µM (inactive)
- GI50 (SF-268): > 100 µM (inactive)
- GI50 (SF-295): > 100 µM (inactive)
- GI50 (SF-539): > 100 µM (inactive)
- GI50 (SK-MEL-28): > 100 µM (inactive)
- GI50 (SK-MEL-2): > 100 µM (inactive)
- GI50 (SK-MEL-5): > 100 µM (inactive)
- GI50 (SK-OV-3): > 100 µM (inactive)
- GI50 (SN12C): > 100 µM (inactive)
- GI50 (SNB-19): > 100 µM (inactive)
- GI50 (SNB-75): > 100 µM (inactive)
- GI50 (SW-620): > 100 µM (inactive)
- GI50 (T47D): > 100 µM (inactive)
- GI50 (TK-10): > 100 µM (inactive)
- GI50 (U-251): > 100 µM (inactive)
- GI50 (UACC-257): > 100 µM (inactive)
- GI50 (UACC-62): > 100 µM (inactive)
- GI50 (UO-31): > 100 µM (inactive)

SMILES: CN(C)c1ccc(/C=N/CC2CCCN3CCCCC23)cc1 (stereo not drawn)
- GI50 (786-0): > 100 µM (inactive)
- GI50 (A549): > 100 µM (inactive)
- GI50 (ACHN): > 100 µM (inactive)
- GI50 (BT-549): > 100 µM (inactive)
- GI50 (CAKI-1): > 100 µM (inactive)
- GI50 (COLO 205): 42.7 µM (inactive)
- GI50 (DU-145): > 100 µM (inactive)
- GI50 (EKVX): > 100 µM (inactive)
- GI50 (HCC 2998): > 100 µM (inactive)
- GI50 (HCT-116): > 100 µM (inactive)
- GI50 (HCT-15): > 100 µM
- GI50 (HOP-62): > 100 µM (inactive)
- GI50 (Hs-578T): 24.8 µM (inactive)
- GI50 (IGROV-1): > 100 µM (inactive)
- GI50 (KM12): > 100 µM (inactive)
- GI50 (LOX IMVI): > 100 µM (inactive)
- GI50 (M14): > 100 µM (inactive)
- GI50 (MCF7): > 100 µM (inactive)
- GI50 (MDA-MB-231): > 100 µM (inactive)
- GI50 (MDA-N): > 100 µM (inactive)
- GI50 (Malme-3M): > 100 µM (inactive)
- GI50 (NCI-H226): > 100 µM (inactive)
- GI50 (NCI-H23): > 100 µM (inactive)
- GI50 (NCI-H460): > 100 µM (inactive)
- GI50 (NCI-H522): > 100 µM (inactive)
- GI50 (NCI/ADR-RES): > 100 µM (inactive)
- GI50 (OVCAR-3): > 100 µM (inactive)
- GI50 (OVCAR-5): > 100 µM (inactive)
- GI50 (OVCAR-8): > 100 µM (inactive)
- GI50 (PC-3): > 100 µM (inactive)
- GI50 (RXF 393): 47.3 µM (inactive)
- GI50 (SF-268): > 100 µM (inactive)
- GI50 (SF-295): > 100 µM (inactive)
- GI50 (SK-MEL-5): 58.7 µM (inactive)
- GI50 (SK-OV-3): > 100 µM (inactive)
- GI50 (SNB-19): > 100 µM (inactive)
- GI50 (SNB-75): > 100 µM (inactive)
- GI50 (TK-10): > 100 µM (inactive)
- GI50 (UACC-257): > 100 µM (inactive)
- GI50 (UACC-62): > 100 µM (inactive)
- GI50 (UO-31): > 100 µM (inactive)

SMILES: O=C(CSCC(=O)N/N=C\c1ccccc1F)N/N=C\c1ccccc1F
- GI50 (786-0): > 100 µM (inactive)
- GI50 (A498): > 100 µM (inactive)
- GI50 (A549): > 100 µM (inactive)
- GI50 (ACHN): > 100 µM (inactive)
- GI50 (CAKI-1): > 100 µM (inactive)
- GI50 (CCRF-CEM): 90.4 µM (inactive)
- GI50 (COLO 205): > 100 µM (inactive)
- GI50 (DU-145): > 100 µM (inactive)
- GI50 (EKVX): > 100 µM (inactive)
- GI50 (HCC 2998): 38.5 µM (inactive)
- GI50 (HCT-116): > 100 µM (inactive)
- GI50 (HCT-15): 63.2 µM
- GI50 (HL-60): > 100 µM (inactive)
- GI50 (HOP-92): > 100 µM (inactive)
- GI50 (HT-29): > 100 µM (inactive)
- GI50 (Hs-578T): > 100 µM (inactive)
- GI50 (IGROV-1): > 100 µM (inactive)
- GI50 (KM12): 92.9 µM (inactive)
- GI50 (LOX IMVI): > 100 µM (inactive)
- GI50 (M14): > 100 µM (inactive)
- GI50 (MCF7): > 100 µM (inactive)
- GI50 (MDA-MB-231): > 100 µM (inactive)
- GI50 (MDA-MB-435): 68.5 µM (inactive)
- GI50 (MOLT-4): 63.2 µM (inactive)
- GI50 (Malme-3M): > 100 µM (inactive)
- GI50 (NCI-H226): 87.5 µM (inactive)
- GI50 (NCI-H23): > 100 µM (inactive)
- GI50 (NCI-H460): 99.5 µM (inactive)
- GI50 (NCI-H522): 64.6 µM (inactive)
- GI50 (NCI/ADR-RES): 14 µM (inactive)
- GI50 (OVCAR-3): 27 µM (inactive)
- GI50 (OVCAR-4): > 100 µM (inactive)
- GI50 (OVCAR-8): 49.9 µM (inactive)
- GI50 (RPMI-8226): 36.3 µM (inactive)
- GI50 (RXF 393): > 100 µM (inactive)
- GI50 (SF-268): > 100 µM (inactive)
- GI50 (SF-295): 41.7 µM (inactive)
- GI50 (SF-539): > 100 µM (inactive)
- GI50 (SK-MEL-28): > 100 µM (inactive)
- GI50 (SK-MEL-2): > 100 µM (inactive)
- GI50 (SK-MEL-5): 64.1 µM (inactive)
- GI50 (SK-OV-3): > 100 µM (inactive)
- GI50 (SN12C): > 100 µM (inactive)
- GI50 (SNB-19): > 100 µM (inactive)
- GI50 (SNB-75): > 100 µM (inactive)
- GI50 (SW-620): > 100 µM (inactive)
- GI50 (T47D): 77.6 µM (inactive)
- GI50 (TK-10): > 100 µM (inactive)
- GI50 (U-251): 67.3 µM (inactive)
- GI50 (UACC-257): > 100 µM (inactive)
- GI50 (UACC-62): > 100 µM (inactive)
- GI50 (UO-31): > 100 µM (inactive)

Reference: ChEMBL document CHEMBL1201862, “PubChem BioAssay data set” (2004)
